Earlier results, collected in patent US20220361462A1, “ANIMAL MODEL FOR NEURODEGENERATIVE DISORDERS” (NEURO-BIO LTD, priority 2019, published 2022).
No end group written: not given here.

Test system: cell lines
Conditions: previously shown by the inventors

Q: Which “effect on AD-like phenotype promoted by AChE-derived peptide on cell lines” value does the source give for “NBP-14: candidate modulator of the α7-nAChR, the cyclized form of T14, cyclic SEQ ID No:4 (AEFHRWSSYMVHWK; not fully specified; also: cyclised, mode not given here; listed as Homo sapiens)” here?
A: blocked
